Square brackets hold non-standard residues; d marks the D form. Ends that are not written are not given here. Phe(4-CF3) = N[C@@H](Cc1ccc(C(F)(F)F)cc1)C(=O)O

Here are results for seven molecules from paper PMC10710507 (Nature Communications, 2023).

Series [1] relates to NTS1. The following applies: cited from earlier work. An excerpt: The ECL2 of many GPCRs forms a lid over the ligand-bound orthosteric binding pocket of the receptor via interaction with the N-terminal region or ECL3 of the receptor, which can increase the affinity of the ligand by slowing down its dissociation rate[35],[37]. Although such a formation has not been confirmed experimentally for NTS1, all structures published to date on the complex of NT with NTS1 show close contacts between the N-terminal region and the ECL2 of NTS1 (PDB: 4XEE, 6YVR, 4BUO)[21],[33],[34]. However, the structure of these parts of NTS1 in the apo-state or when complexed with smal ...

In series [2] the test system is free fatty acid receptor 2, FFA2. The following applies: cited from earlier work. An excerpt:
Whether NT binds to the orthosteric binding pocket of the intermediate state or occupies different conformations in distinct pockets remains to be fully answered. […] Intermediate-state binding pockets have been attributed to a sequential activation mechanism of the free fatty acid receptor 2, FFA2, by the previously considered allosteric modulator, 4-CMTB[62]. 4-CMTB binds to the orthoste ...

Series [3] deals with enNTS1. Kind of series: Cell surface competition binding assay, enNTS1. Further details: species or system rat. Conditions: HEK293F cells, competition with 5 nM Cy5-NT8-13, 1 h, room temperature, flow cytometry, n = 4. How it is done: 100,000 HEK293F cells (Invitrogen) stably expressing receptor and the cytosolic mCherry fluorophore were suspended in complete phenol red free DMEM (10% FBS, 1% L-Glutamine, 1% penicillin-streptomycin) and were added to the relevant ligand concentrations in the presence of 5 nM Cy5-NT8-13 for enNTS1 and wt-rNTS1 or 2 nM FAM-NT8-13 for rNTS1-R213L. Cells were then gently agitated on an orbital shaker in the dark for 1 h at room temperature for ligand binding to reach a state of equilibrium. The mean fluorescence intensity of bound FAM-NT8-13 and Cy5-NT8-13 was measured with a CytoflexS (Beckman-Coulter) flow cytometer using the 525/40 and 660/20 filter, respectively. Data was then analysed using the One site – Fit Ki function on GraphPad Prism (version: 9.3.1, Graphpad Software, San Diego, CA). The data for enNTS1 and wt-NTS1 are mean of four replicates (n = 4) and the assays with rNTS1-R213L are performed in triplicates (n = 3).
Supplementary Figure 3. Functional characterization of the NT peptides used in this study. The cell-surface binding of peptides to (a) wt-rNTS1 and enNTS1 (b) rNTS1-R213L. The competition binding curves are for NT8-13 (black circles) , Y11tfmF-NT8-13 (red triangles).
Cy5-labellled NT8-13 and FAM -labelled NT8-13 was used as a fluorescent competitor for investigating the binding. […]
(In general: A flow cytometer gives signals particle by particle.)

The subject of series [4] is wt-rNTS1. Kind of series: G protein BRET assay, wt-rNTS1. Format: cell-based, rat. Conditions: HEK293T cells, n = 3. How it is done: (§1) 500,000 HEK293T cells were seeded per well in a 6-well plate in complete DMEM (10% FBS, 1% L-Glutamine, 1% penicillin-streptomycin). Cells were transfected the following day with a solution of Opti-mem and lipofectamine 2000 at a quantity of 1 µL/1 µg of DNA. For β-arrestin-2 recruitment assay cells were co-transfected with 250 ng of either pcDNA 3.1 zeo-HA-FLAG-wt-rNTS1-nLuc or pcDNA 3.1 zeo-HA-FLAG-rNTS1-R213L-nLuc and with 600 ng of pcDNA human β-arrestin-2-Venus. In G protein BRET assays, cells were co-transfected with 750 ng of pCSC-rNTS1-IRES-mCherry, pCSC-rNTS1-R213L-IRES-mCherry or pCSC-enNTS1-IRES-mCherry and with 250 ng of Gαi (for enNTS1) or Gq (for rNTS1 and rNTS1-R213L) BRET biosensor. […] The plate was then incubated at 37 °C for 10 min in a PHERAstar® FSX microplate reader (BMG LABTECH). Dual luminescence of 450/535 nm was then measured for 3 min before manually adding 10 µL of 10x ligand concentration or vehicle to respective wells before completing the time course measurement. The BRET ratio was calculated as Venus emission to nLuc emission. […] Concentration–response curves were calculated by first integrating the area under the BRET ratio over time plot using the Area Under the Curve function and then plotted against ligand concentration. […]

For series [5], the system named is wt-rNTS1. Kind of series: β-arrestin-2 recruitment BRET assay, wt-rNTS1. Format: cell-based, rat. Conditions: HEK293T cells, β-arrestin-2-Venus, 37 °C, n = 3. How it is done: as §1
Series [6] can be described thus: 19F NMR interaction with DDM micelles. It counts as physicochemical. The following applies: 298 K, Supplementary Fig. 5b. How it is done: All NMR experiments were performed on a Bruker 700 MHz Avance IIIHD spectrometer running Topspin 3.2.7 and equipped with a ^1H/^13C/^15N triple-resonance TCI cryoprobe, where the proton channel was tuned to ^19F, ~658 MHz. The 1D spectra were collected in a pulse-acquire manner at 298 K, with the carrier frequency set at −65 ppm. 512 to 2048 scans were collected per spectrum with 16 K of data points and a spectral width of 49 ppm. 2680 scans were collected for the sample of Y11tfmF-NT8-13 in complex with enNTS1 in the presence of Gαiq. The spectrum on the complex of ^19F-labelled peptides and ^19F-labelled receptor were processed in Topspin vs3.4 using, respectively, 50 Hz and 10 Hz line broadening and zero filling prior to Fourier transformation. Spectral deconvolution was performed in MNova (version: 10.0.2-15465, Mestrelab Research).

Series [7] concerns enNTS1. Nature of the series: Ligand-observed 19F NMR / 19F STD, enNTS1 complex. Format: binding, rat. The following applies: 298 K, pH 7.4.
Series [8] concerns enNTS1-R213. Nature of the series: Ligand-observed 19F NMR / 19F STD, enNTS1-R213 complex. It counts as binding, rat. Conditions: 298 K, pH 7.4. How it is done:
The peptide-receptor complex was formed by addition of a 10-fold excess of peptide to receptor. The solution was incubated on ice for one hour, followed by buffer exchange to remove free peptide in 50 mM potassium phosphate pH 7.4, 100 mM NaCl, 0.05% DDM, 50 µM EDTA, 0.02% NaN3. 100 μM of freshly formed complexes were mixed with 10 μM free receptor to ensure excess receptor. The samples were adjusted to 10% D2O, 500 μM DSS and 20 μM TFA as lock nuclei, ^1H and ^19F references, respectively.
For NMR experiments in the presence of Gαiq, enNTS1-R213 was incubated on ice with 5-fold Y11tfmF-NT8-13 over receptor for 30 min and then 5-fold Gαiq over receptor with incubation for another 30 min. […]
^19F saturation transfer difference (STD) experiments were acquired using the STDDiff pulse sequence from the Bruker library. […] These were interleaved with equivalent off-resonance spectra, where the offset was set equidistant to the monitored and saturated peaks. The intensities of the monitored peak in the presence of on-resonance saturation were normalized against the spectra collected in the absence of saturation and subtracted from the intensities in the presence of the equidistant off-resonance spectra to account for off-resonance effects. […]

Series [9] addresses T1, wt-rNTS1 (wild-type rat neurotensin receptor 1) on HEK293F cells (rat, UniProt P20789 1-424).
T1 construct: also called wt-NTS1; source: HEK293F cells stably expressing receptor and cytosolic mCherry
Kind of series: flow cytometry on cells; cell surface competition: 100,000 HEK293F cells stably expressing receptor, unlabelled ligand varied against 5 nM Cy5-NT8-13, 1 h at room temperature, mCherry-positive single cells, One site - Fit Ki. Conditions: one partner purified.

T1 sequence (P20789 whole entry): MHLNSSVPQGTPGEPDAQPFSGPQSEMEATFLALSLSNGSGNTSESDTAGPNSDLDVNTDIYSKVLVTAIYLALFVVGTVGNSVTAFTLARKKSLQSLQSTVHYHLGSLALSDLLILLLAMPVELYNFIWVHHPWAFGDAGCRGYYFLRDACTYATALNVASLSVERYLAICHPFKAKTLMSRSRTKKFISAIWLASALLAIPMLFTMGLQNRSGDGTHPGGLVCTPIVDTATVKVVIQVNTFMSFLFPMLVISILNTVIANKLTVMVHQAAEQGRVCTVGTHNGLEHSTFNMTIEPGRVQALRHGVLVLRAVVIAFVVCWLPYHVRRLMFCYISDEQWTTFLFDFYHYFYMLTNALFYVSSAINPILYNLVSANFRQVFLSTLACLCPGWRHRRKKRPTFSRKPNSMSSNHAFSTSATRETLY

Turning to `COc1cccc(OC)c1-c1cc(C(=O)NC2(C(=O)O)C3CC4CC(C3)CC2C4)nn1-c1ccnc2cc(Cl)ccc12` (centres unmarked) [SR48692], in series [1], the “pharmacological class at NTS1” value was “inverse agonists”.
For `COc1cccc(OC)c1-c1cc(C(=O)N[C@@H](CC(C)C)C(=O)O)nn1-c1ccnc2cc(Cl)ccc12` [RTI-3a], the “pharmacological class at NTS1” value in series [1] is “partial agonist”.
For `COc1cccc(OC)c1-c1cc(C(=O)NC2(C(=O)O)C3CC4CC(C3)CC2C4)nn1-c1ccc(C(=O)N(C)CCCN(C)C)cc1C(C)C` (centres unmarked) [SR142948A], in series [1], the “pharmacological class at NTS1” value is “inverse agonists”.
As for `CC(C)C(C(=O)Nc1nccs1)c1ccc(Cl)cc1` (centres unmarked) [4-CMTB], the “binding and signalling at FFA2” value in [2] is recorded as “binds to the orthosteric binding pocket of FFA2, where it primarily initiates downstream orthosteric signalling followed by diffusion into an allosteric pocket”.
For the molecule “Y11tfmF-NT: fluorinated analogue of NT, Tyr11 substituted with para-trifluoromethyl-phenylalanine (ELYENKPRRPFIL; para-trifluoromethyl-phenylalanine (tfmF) at position 11; pyroglutamate (pE) at position 1 as in NT)”, the “affinity for enNTS1 (effect of CF3 moiety)” value in series [3] was “unaffected”. In series [4] (BRET assays), the “activation of wt-rNTS1” value is “can fully activate wt-rNTS1”. Moreover, the “efficacy in G protein BRET assay” value in series [4] (Gq BRET biosensor, 37 °C) is given as “equally efficacious”. Besides, the “efficacy in β-arrestin recruitment BRET assay” value in [5] was “equally efficacious”. Also, in series [6], the “effect of DDM on 19F NMR signal of the peptide” value is on record as “not perturbed in the presence of DDM”.
Take “Y11tfmF-NT8-13: truncated version of 19F-NT (RRP[Phe(4-CF3)]IL)”: in series [7], the “exchange rate constant from S1 to S2, k12” value turned out to be 1.23 s⁻¹ and the “exchange rate constant from S2 to S1, k21” value came out at 0.08 s⁻¹. In series [8], the “exchange rate constant k12 (S1 to S2)” value was found to be 0.14 s⁻¹ and the “exchange rate constant k21 (S2 to S1)” value stood at 0.26 s⁻¹.

B1: Y11tfmF-NT (peptide)
peptide: ELYENKPRRPFIL
modifications: para-trifluoromethyl-phenylalanine (tfmF) at position 11; pyroglutamate (pE) at position 1 as in NT
notes: in this molecule Tyr11 is replaced by tfmF (see substitutions); numbers count on: the mature neurotensin peptide; The new residue is the unnatural amino acid para-trifluoromethyl-phenylalanine, written F in the substitution row; also called 19F-NT; fluorinated analogue of NT; source: synthetic peptide (Fmoc solid phase synthesis, reverse-phase HPLC)
For the molecule B1, the “fold reduction of affinity against NT” value in series [9] was 100 fold.
